In PubChem BioAssay AID1259407 (Chemical Carcinogenesis Research Information System (CCRIS), 2018):
Activity calls are given as the source filed them. No rule for the calls is given here.

System: CCRIS mutagenicity, Ames/micronucleus/aberration tests
Assay: CCRIS mutagenicity studies
[1] = Test System: AMES SALMONELLA TYPHIMURIUM, Strain/Indicator: TA98, Metabolic Activation: NONE, Method: PREINCUBATION
[2] = Test System: AMES SALMONELLA TYPHIMURIUM, Strain/Indicator: TA100, Metabolic Activation: NONE, Method: PREINCUBATION
[3] = Test System: AMES SALMONELLA TYPHIMURIUM, Strain/Indicator: TA1535, Metabolic Activation: NONE, Method: PREINCUBATION
[4] = Test System: AMES SALMONELLA TYPHIMURIUM, Strain/Indicator: TA1537, Metabolic Activation: NONE, Method: PREINCUBATION
[5] = Test System: AMES SALMONELLA TYPHIMURIUM, Strain/Indicator: TA97A, Metabolic Activation: NONE, Method: PREINCUBATION
[6] = Test System: AMES SALMONELLA TYPHIMURIUM, Strain/Indicator: TA100, Metabolic Activation: RAT, LIVER, S-9, PHENOBARBITAL AND 5,6-BENZOFLAVONE, Method: PREINCUBATION

In the case of `OC1CCCCC1`, the mutagenic call (Test System: AMES SALMONELLA TYPHIMURIUM, Strain/Indicator: TA98, Metabolic Activation: HAMSTER, LIVER, S-9, AROCLOR 1254, Method: PREINCUBATION) was “inactive; negative”, the mutagenic call [1] was “inactive; negative” and the mutagenic call (Test System: AMES SALMONELLA TYPHIMURIUM, Strain/Indicator: TA98, Metabolic Activation: RAT, LIVER, S-9, AROCLOR 1254, Method: PREINCUBATION) was “inactive; negative”. For the same compound, the mutagenic call (Test System: AMES SALMONELLA TYPHIMURIUM, Strain/Indicator: TA100, Metabolic Activation: HAMSTER, LIVER, S-9, AROCLOR 1254, Method: PREINCUBATION) was “inactive; negative”, the mutagenic call [2] was “inactive; negative” and the mutagenic call (Test System: AMES SALMONELLA TYPHIMURIUM, Strain/Indicator: TA100, Metabolic Activation: RAT, LIVER, S-9, AROCLOR 1254, Method: PREINCUBATION) was “inactive; negative”. For the same compound, the mutagenic call (Test System: AMES SALMONELLA TYPHIMURIUM, Strain/Indicator: TA1535, Metabolic Activation: HAMSTER, LIVER, S-9, AROCLOR 1254, Method: PREINCUBATION) was “inactive; negative”, the mutagenic call [3] was “inactive; negative” and the mutagenic call (Test System: AMES SALMONELLA TYPHIMURIUM, Strain/Indicator: TA1535, Metabolic Activation: RAT, LIVER, S-9, AROCLOR 1254, Method: PREINCUBATION) was “inactive; negative”. For the same compound, the mutagenic call (Test System: AMES SALMONELLA TYPHIMURIUM, Strain/Indicator: TA1537, Metabolic Activation: HAMSTER, LIVER, S-9, AROCLOR 1254, Method: PREINCUBATION) was “inactive; negative”, the mutagenic call [4] was “inactive; negative” and the mutagenic call (Test System: AMES SALMONELLA TYPHIMURIUM, Strain/Indicator: TA1537, Metabolic Activation: RAT, LIVER, S-9, AROCLOR 1254, Method: PREINCUBATION) was “inactive; negative”.

For `O[C@@H]1[C@@H]2O[C@@H]2c2cc3c(ccc4ccccc43)cc2[C@H]1O`, the mutagenic call (Test System: CHINESE HAMSTER V-79, Strain/Indicator: V-79/8-AZAGUANINE, Metabolic Activation: NONE, Method: STANDARD PLATE) was “active; positive”.

With `Cc1cc2nc3c(=O)[nH]c(=O)nc-3n(C)c2cc1C` the mutagenic call [5] was “inactive; negative”, the mutagenic call (Test System: AMES SALMONELLA TYPHIMURIUM, Strain/Indicator: TA97A, Metabolic Activation: RAT, CECAL CELL-FREE EXTRACT, Method: PREINCUBATION) was “active; positive” and the mutagenic call (Test System: AMES SALMONELLA TYPHIMURIUM, Strain/Indicator: TA97A, Metabolic Activation: RAT, LIVER, S9, AROCLOR 1254, Method: PREINCUBATION) was “active; positive”. The mutagenic call [1] was “inactive; negative”, the mutagenic call (Test System: AMES SALMONELLA TYPHIMURIUM, Strain/Indicator: TA98, Metabolic Activation: RAT, CECAL CELL-FREE EXTRACT, Method: PREINCUBATION) was “inactive; negative” and the mutagenic call (Test System: AMES SALMONELLA TYPHIMURIUM, Strain/Indicator: TA98, Metabolic Activation: RAT, LIVER, S9, AROCLOR 1254, Method: PREINCUBATION) was “active; positive”. For the same compound, the mutagenic call [2] was “inactive; negative”, the mutagenic call (Test System: AMES SALMONELLA TYPHIMURIUM, Strain/Indicator: TA100, Metabolic Activation: RAT, CECAL CELL-FREE EXTRACT, Method: PREINCUBATION) was “inactive; negative” and the mutagenic call (Test System: AMES SALMONELLA TYPHIMURIUM, Strain/Indicator: TA100, Metabolic Activation: RAT, LIVER, S9, AROCLOR 1254, Method: PREINCUBATION) was “inactive; negative”.

With `Cc1ccc2ncccc2c1` the mutagenic call (Test System: AMES SALMONELLA TYPHIMURIUM, Strain/Indicator: TA98, Metabolic Activation: HAMSTER, LIVER, S-9, AROCLOR 1254 (30%), Method: PREINCUBATION) was “active; positive”, the mutagenic call [1] was “inactive; negative” and the mutagenic call (Test System: AMES SALMONELLA TYPHIMURIUM, Strain/Indicator: TA98, Metabolic Activation: RAT, LIVER, S-9, AROCLOR 1254 (5 OR 10%), Method: PREINCUBATION) was “inactive; negative”. The mutagenic call (Test System: AMES SALMONELLA TYPHIMURIUM, Strain/Indicator: TA100, Metabolic Activation: HAMSTER, LIVER, S-9, AROCLOR 1254 (30%), Method: PREINCUBATION) was “active; positive”, the mutagenic call [2] was “inactive; negative” and the mutagenic call (Test System: AMES SALMONELLA TYPHIMURIUM, Strain/Indicator: TA100, Metabolic Activation: RAT, LIVER, S-9, AROCLOR 1254 (30%), Method: PREINCUBATION) was “active; positive”. For the same compound, the mutagenic call [6] was “active; positive”, the mutagenic call (Test System: AMES SALMONELLA TYPHIMURIUM, Strain/Indicator: TA100, Metabolic Activation: RAT, LIVER, S-9, PHENOBARBITAL AND 5,6-NAPHTHOFLAVONE, Method: PREINCUBATION) was “active; positive” and the mutagenic call (Test System: AMES SALMONELLA TYPHIMURIUM, Strain/Indicator: TA100, Metabolic Activation: RAT, LIVER, S-9, Method: PREINCUBATION) was “active; positive”. For the same compound, the mutagenic call (Test System: UDS RODENT HEPATOCYTES, Strain/Indicator: THY INCORP (NON-S-PHASE), Metabolic Activation: NONE, Method: AUTORADIOGRAPHY) was “inactive; negative”.

For `N[C@@H](CSC(F)(F)C(F)F)C(=O)O`, the mutagenic call (Test System: AMES SALMONELLA TYPHIMURIUM, Strain/Indicator: TA100, Metabolic Activation: RAT, KIDNEY, S-9, AROCLOR 1254, Method: STANDARD PLATE) was “inactive; negative” and the mutagenic call (Test System: AMES SALMONELLA TYPHIMURIUM, Strain/Indicator: TA2638, Metabolic Activation: NONE, Method: PREINCUBATION) was “inactive; negative”.

For `N#CCCC(=O)CCc1ccc(C(=O)O)cc1`, the mutagenic call [1] was “active; positive”, the mutagenic call (Test System: AMES SALMONELLA TYPHIMURIUM, Strain/Indicator: TA98, Metabolic Activation: RAT, LIVER, S-9, PCB, Method: PREINCUBATION) was “inactive; negative” and the mutagenic call [2] was “inactive; negative”. The mutagenic call (Test System: AMES SALMONELLA TYPHIMURIUM, Strain/Indicator: TA100, Metabolic Activation: RAT, LIVER, S-9, PCB, Method: PREINCUBATION) was “inactive; negative”.

In the case of `Cc1cc2c(C)c3ccccc3nc2c2ccccc12`, the mutagenic call [5] was “active; positive”, the mutagenic call [1] was “inactive; negative” and the mutagenic call [2] was “active; positive”. The mutagenic call (Test System: AMES SALMONELLA TYPHIMURIUM, Strain/Indicator: TA102, Metabolic Activation: NONE, Method: PREINCUBATION) was “active; positive”.

`O=C(O)CO.[NH2-].[NH2-].[Pt+2]` was tested, and the mutagenic call [1] was “active; positive”, the mutagenic call (Test System: AMES SALMONELLA TYPHIMURIUM, Strain/Indicator: TA98, Metabolic Activation: RAT, LIVER, S-9, PHENOBARBITAL AND 5,6-BENZOFLAVONE, Method: PREINCUBATION) was “active; positive” and the mutagenic call [2] was “active; positive”. The mutagenic call [6] was “active; positive”, the mutagenic call [3] was “inactive; negative” and the mutagenic call (Test System: AMES SALMONELLA TYPHIMURIUM, Strain/Indicator: TA1535, Metabolic Activation: RAT, LIVER, S-9, PHENOBARBITAL AND 5,6-BENZOFLAVONE, Method: PREINCUBATION) was “inactive; negative”. For the same compound, the mutagenic call [4] was “inactive; negative”, the mutagenic call (Test System: AMES SALMONELLA TYPHIMURIUM, Strain/Indicator: TA1537, Metabolic Activation: RAT, LIVER, S-9, PHENOBARBITAL AND 5,6-BENZOFLAVONE, Method: PREINCUBATION) was “inactive; negative” and the mutagenic call (Test System: E.COLI, Strain/Indicator: WP2 UVRA, Metabolic Activation: NONE, Method: PREINCUBATION) was “inactive; negative”. The mutagenic call (Test System: E.COLI, Strain/Indicator: WP2 UVRA, Metabolic Activation: RAT, LIVER, S-9 PHENOBARBITAL AND 5,6-BENZOFLAVONE, Method: PREINCUBATION) was “inactive; negative”.
